Laboratory results reported in paper PMC6611044, “Pharmacokinetic analysis of new synthetic antimalarial N-251” (Tropical Medicine and Health, 2019).
pEC50: −log10 of the molar value. ≈ marks a conversion by molar mass, not a printed value. Read-outs that look alike come from different tables or passages of the source.

What was measured:
[1] = PK analysis after i.v. administration of N-251 in fasted mice; type: in vivo; conditions: for MRTiv / Vd1 / Vd2 / AUC / k el / clearance / Vd: fasted mice; for A (hybrid parameter) / B (hybrid parameter) / a (hybrid parameter) / b (hybrid parameter): two-compartment fit; for half-life / AUC / k el / clearance / Vd: male, ICR, mouse, plasma; for clearance: read-out: CLtotal (converted); for Vd: read-out: Vdss
Protocol: We used healthy 5-week-old ICR male mice that were subjected to overnight fasting since the night a day before the test. To analyze N-251 after i.v. administration, doses of 25, 10, and 5 mg/kg were used for each group. The blood sample was collected at 2, 5, 15, and 30 min as well as 1, 2, 4, and 6 h post-dose, and a single blood sample was collected from a single mouse. Preparation of plasma samples of N-251 was described in the “Methods” section. Data were expressed as mean (n = 6) ± standard deviation (SD). Plasma concentration-time profiles after i.v. administration were fitted to a two-compartment model using the non-linear least-squares regression program MULTI [17]. Plasma concentration (Cp) was expressed using the following equation: Cp=A⋅EXP−α⋅t+B⋅EXP−β⋅t.
where A and B are D ⋅ (α − k21)/Vd1/(α − β) and D ⋅ (k21 − β)/Vd1/(α − β), respectively. D, Vd1, and k21 are the dose, apparent distribution volume of central compartment, and distribution rate constant from the peripheral to central compartment, respectively, and α and β represent the slopes of α and β phases of log Cp, respectively. PK parameters were calculated as follows: AUC = A/α +B/β; total body clearance, CLtotal =D/AUC; elimination rate constant, kel = (Aβ + Bα)/(A + B); apparent distribution volume of peripheral compartment, Vd2 =k12/k21·Vd1; distribution volume at steady state, Vdss = Vd1 + Vd2; and mean residence time (MRT) = (k12+ k21)/(kel·k21).

Solubility = type: physicochemical; conditions: water
[2] = tested on: P. falciparum (FCR-3 strain); set-up: method as in PMID 21501696; conditions: P. falciparum FCR-3 strain in vitro, cited from earlier work
[3] = i.v. 5, 10 and 25 mg/kg, range over doses

## OCCCCCCC1COOC2(CCCCCCCCCCC2)OOC1 [N-251, 6-(1,2,6,7-tetraoxaspiro [7.11]nonadec-4-yl)hexan-1-ol]
[1]; i.v. 5 mg/kg
  MRTiv: 1.12 h
  Vd1: 3.23 L/kg
  Vd2: 1.62 L/kg
  A (hybrid parameter): 1453.6 ± 465.9 ng/mL
  B (hybrid parameter): 92.5 ± 182.0 ng/mL
  a (hybrid parameter): 1.62 ± 0.70 h⁻¹
  b (hybrid parameter): 0.35 ± 0.37 h⁻¹
[1]; i.v. 10 mg/kg
  MRTiv: 0.96 h
  Vd1: 1.58 L/kg
  Vd2: 2.35 L/kg
  A (hybrid parameter): 5922.7 ± 1731.5 ng/mL
  B (hybrid parameter): 410.0 ± 253.8 ng/mL
  a (hybrid parameter): 3.84 ± 1.23 h⁻¹
  b (hybrid parameter): 0.46 ± 0.15 h⁻¹
[1]; i.v. 25 mg/kg
  MRTiv: 0.86 h
  Vd1: 1.36 L/kg
  Vd2: 1.52 L/kg
  A (hybrid parameter): 17,738.1 ± 1700.0 ng/mL
  B (hybrid parameter): 690.4 ± 341.6 ng/mL
  a (hybrid parameter): 3.12 ± 0.55 h⁻¹
  b (hybrid parameter): 0.39 ± 0.10 h⁻¹
[1]; [3]
  T1/2α: 0.18 to 0.429 h
  distribution volume: 2.88 to 4.85 L/kg
[1]; other: i.v. and p.o. administration, i.v. and p.o. administration, read-out: half-life
  half-life: < 2 h
[1]; iv, i.v. 5 mg/kg
  AUC: 1160 ng·h/mL
  k el: 0.000369 s⁻¹
  clearance: 71.7 mL/min/kg
  Vd: 4.85 L/kg
[1]; iv, i.v. 10 mg/kg
  AUC: 2430 ng·h/mL
  k el: 0.000722 s⁻¹
  clearance: 68.5 mL/min/kg
  Vd: 3.93 L/kg
[1]; iv, i.v. 25 mg/kg
  AUC: 7460 ng·h/mL
  k el: 0.000686 s⁻¹
  clearance: 55.8 mL/min/kg
  Vd: 2.88 L/kg
[1]; iv, i.v. 5, 10 and 25 mg/kg, range over doses, read-out: T1/2β
  half-life: 1.5 to 1.99 h
Solubility
  solubility: 7 µg/mL (≈ 18.8 µM)
[2]; equivalent of 8.6 ng/mL, read-out: EC50
  pEC50: 7.64
[2]
  EC50: 8.6 ng/mL
